Experimental data from patent publication US20200239530A1, “COMPOUNDS AND METHODS OF MODULATING PROTEIN DEGRADATION” (Vividion Therapeutics, Inc., priority 2017, published 2020).
Where two headings read alike, the source gives them in different places.

Assays:
Assay in all cases: Cysteine liganding, probe competition
Assay type in all cases: binding
[1] = molecular target: T1, UniProt Q8TE49 (Homo sapiens, UniProt Q8TE49)
T1 construct: Cells were resuspended in cold PBS on ice and sonicated with a probe sonicator to achieve lysis; endogenous in cells
T1 sequence (Q8TE49 1-926): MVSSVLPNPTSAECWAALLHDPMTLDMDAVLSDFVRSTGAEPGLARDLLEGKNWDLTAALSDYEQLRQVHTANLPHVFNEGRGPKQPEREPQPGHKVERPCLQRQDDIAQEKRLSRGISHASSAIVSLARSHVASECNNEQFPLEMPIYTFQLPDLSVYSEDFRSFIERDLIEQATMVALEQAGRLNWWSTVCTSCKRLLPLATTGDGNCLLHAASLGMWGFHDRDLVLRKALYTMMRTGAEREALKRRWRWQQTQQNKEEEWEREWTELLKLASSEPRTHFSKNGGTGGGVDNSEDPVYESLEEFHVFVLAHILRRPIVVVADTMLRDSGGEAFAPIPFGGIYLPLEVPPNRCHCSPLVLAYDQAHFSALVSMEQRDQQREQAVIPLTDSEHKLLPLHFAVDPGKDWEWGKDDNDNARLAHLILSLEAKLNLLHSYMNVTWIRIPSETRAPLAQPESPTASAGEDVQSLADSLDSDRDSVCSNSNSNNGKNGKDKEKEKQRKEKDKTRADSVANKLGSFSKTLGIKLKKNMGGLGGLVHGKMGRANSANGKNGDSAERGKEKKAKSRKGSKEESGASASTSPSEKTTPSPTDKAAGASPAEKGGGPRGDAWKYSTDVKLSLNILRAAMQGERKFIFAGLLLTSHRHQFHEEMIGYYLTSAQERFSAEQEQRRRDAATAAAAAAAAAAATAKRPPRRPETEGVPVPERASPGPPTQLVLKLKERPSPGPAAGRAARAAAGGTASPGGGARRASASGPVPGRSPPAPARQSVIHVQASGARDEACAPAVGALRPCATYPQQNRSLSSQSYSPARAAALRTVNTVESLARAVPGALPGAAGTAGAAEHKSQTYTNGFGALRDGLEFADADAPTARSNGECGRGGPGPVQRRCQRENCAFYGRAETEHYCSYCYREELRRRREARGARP
Text: (§1) The following 96-well sample prep protocol was used for sample preparation.

[2] = molecular target: T2, UniProt Q6ZN04 (Homo sapiens, UniProt Q6ZN04); settings: for inhibition at 500 µM: read-out: percent inhibition
T2 construct: Cells were resuspended in cold PBS on ice and sonicated with a probe sonicator to achieve lysis; endogenous in cells
T2 sequence (Q6ZN04 1-569): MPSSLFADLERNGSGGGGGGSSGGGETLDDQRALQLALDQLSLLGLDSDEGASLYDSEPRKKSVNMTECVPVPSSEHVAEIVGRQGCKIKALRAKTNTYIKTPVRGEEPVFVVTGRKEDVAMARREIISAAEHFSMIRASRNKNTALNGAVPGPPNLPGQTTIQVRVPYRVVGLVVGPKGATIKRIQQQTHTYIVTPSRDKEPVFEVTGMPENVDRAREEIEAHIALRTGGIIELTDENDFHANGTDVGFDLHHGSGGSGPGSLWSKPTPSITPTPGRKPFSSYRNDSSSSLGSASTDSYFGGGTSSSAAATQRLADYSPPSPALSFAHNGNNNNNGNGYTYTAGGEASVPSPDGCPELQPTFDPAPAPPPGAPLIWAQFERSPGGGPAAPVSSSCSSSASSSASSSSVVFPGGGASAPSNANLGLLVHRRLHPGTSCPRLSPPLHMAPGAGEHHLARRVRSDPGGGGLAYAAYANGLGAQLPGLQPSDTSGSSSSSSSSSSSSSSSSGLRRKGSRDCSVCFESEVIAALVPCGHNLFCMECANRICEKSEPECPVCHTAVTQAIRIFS
Text: as §1

[3] = molecular target: T3, UniProt Q86WC4 (Homo sapiens, UniProt Q86WC4)
T3 construct: Cells were resuspended in cold PBS on ice and sonicated with a probe sonicator to achieve lysis; endogenous in cells
T3 sequence (Q86WC4 32-334): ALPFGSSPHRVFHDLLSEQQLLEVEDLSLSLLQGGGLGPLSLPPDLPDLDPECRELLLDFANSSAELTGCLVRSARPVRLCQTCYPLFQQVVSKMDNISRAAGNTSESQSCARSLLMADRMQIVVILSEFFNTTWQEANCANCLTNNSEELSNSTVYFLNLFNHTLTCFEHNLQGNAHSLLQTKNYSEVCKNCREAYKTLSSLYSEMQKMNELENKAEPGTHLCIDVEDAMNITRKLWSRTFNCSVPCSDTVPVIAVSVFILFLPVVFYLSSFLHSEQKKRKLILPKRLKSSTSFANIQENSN
Text: as §1

[4] = molecular target: T4, UniProt Q68DV7 (Homo sapiens, UniProt Q68DV7)
T4 construct: 200 μL of lysate containing 5 mg/ml proteome was treated with 2 μL of 100× compound stock; endogenous in cells
T4 sequence (Q68DV7 24-783): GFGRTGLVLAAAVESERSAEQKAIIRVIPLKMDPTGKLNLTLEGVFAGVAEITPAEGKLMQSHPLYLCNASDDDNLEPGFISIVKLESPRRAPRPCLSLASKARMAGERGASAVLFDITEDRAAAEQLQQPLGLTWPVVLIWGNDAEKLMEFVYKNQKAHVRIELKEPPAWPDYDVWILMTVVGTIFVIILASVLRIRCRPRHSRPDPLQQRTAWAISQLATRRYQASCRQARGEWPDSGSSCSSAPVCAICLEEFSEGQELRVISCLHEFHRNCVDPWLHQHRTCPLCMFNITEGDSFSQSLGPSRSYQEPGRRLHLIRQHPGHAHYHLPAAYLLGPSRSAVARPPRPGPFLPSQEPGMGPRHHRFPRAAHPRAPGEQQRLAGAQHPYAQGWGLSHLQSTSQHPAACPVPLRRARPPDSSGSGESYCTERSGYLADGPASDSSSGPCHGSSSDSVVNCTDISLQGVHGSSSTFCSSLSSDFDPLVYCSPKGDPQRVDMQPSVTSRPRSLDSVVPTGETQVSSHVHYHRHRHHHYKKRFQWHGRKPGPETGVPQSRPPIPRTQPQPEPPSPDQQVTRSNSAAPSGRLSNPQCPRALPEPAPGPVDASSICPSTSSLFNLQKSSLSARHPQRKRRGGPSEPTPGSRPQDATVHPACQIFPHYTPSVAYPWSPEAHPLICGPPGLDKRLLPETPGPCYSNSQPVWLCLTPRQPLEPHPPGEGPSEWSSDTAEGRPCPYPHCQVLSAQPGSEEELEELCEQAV
Text: as §1

[5] = 500 uM, read-out: percent_inhibition

inhibition at 500 µM ([1]; 500 uM, read-out: KB05_500 uM_percent_inhibition) [%]	inhibition at 500 µM ([3]; read-out: KB05_500 uM_percent_inhibition) [%]	percent_inhibition ([4]; 500 uM) [%]	Compound	inhibition at 500 µM [2] [%]	inhibition at 500 µM [4, 5] [%]	inhibition at 500 µM ([1]; 500 uM, read-out: KB02_500 uM_percent_inhibition) [%]	inhibition at 500 µM ([3]; read-out: KB02_500 uM_percent_inhibition) [%]	percent_inhibition ([4]; 100 uM) [%]	inhibition at 100 µM ([4]; 100 uM, read-out: percent_inhibition) [%]	KB03_100 uM_percent_inhibition ([1]; 100 uM) [%]	KB03_500 uM_percent_inhibition ([1]; 500 uM) [%]	percent inhibition ([2]; 500 uM) [%]	KB03_500 uM_percent_inhibition ([3]; 500 uM) [%]
23	66	40	C=CC(=O)N(c1ccccc1)c1ccc(Br)cc1 [KB05]	51	42	–	–	–	–	–	–	–	–
–	–	–	COc1ccc2c(c1)CCCN2C(=O)CCl [KB02]	51	41	28	68	21	13	–	–	–	–
–	–	–	O=C(CCl)Nc1cc(C(F)(F)F)cc(C(F)(F)F)c1 [KBO3]	–	–	–	–	7	–	52	56	28	58
